Test in all cases: Thermal protein profiling (TPP) in intact HEK293 cells
Assay type in all cases: cell-based
Common to all, as to conditions: 1 h

The target in one experiment is T1, TRIM26 (Homo sapiens, UniProt Q12899).
T1 construct: endogenous in cells; host or cells: HEK293
T1 sequence (Q12899 1-539): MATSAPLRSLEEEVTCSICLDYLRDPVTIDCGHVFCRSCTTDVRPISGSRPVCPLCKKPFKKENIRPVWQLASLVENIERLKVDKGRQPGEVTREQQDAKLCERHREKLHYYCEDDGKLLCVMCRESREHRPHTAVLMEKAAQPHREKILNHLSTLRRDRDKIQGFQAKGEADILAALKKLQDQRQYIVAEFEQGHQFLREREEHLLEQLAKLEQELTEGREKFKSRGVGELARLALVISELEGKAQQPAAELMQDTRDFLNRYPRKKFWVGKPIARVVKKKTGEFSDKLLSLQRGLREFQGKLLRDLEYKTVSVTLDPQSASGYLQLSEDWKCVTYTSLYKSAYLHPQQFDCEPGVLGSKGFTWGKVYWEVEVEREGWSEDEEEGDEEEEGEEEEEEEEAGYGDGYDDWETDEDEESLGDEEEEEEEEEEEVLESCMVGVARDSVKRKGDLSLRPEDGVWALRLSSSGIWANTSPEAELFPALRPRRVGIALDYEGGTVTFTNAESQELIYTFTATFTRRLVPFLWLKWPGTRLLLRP
The procedure: (§1) incubated in a thermoshaker (600 rpm, 16 h, 37 °C). The digest was stopped by adding 10 μL formic
(§2) acid (FA) and vortexing followed by centrifugation (12,000 ×g, 3 min, room temperature). 50 mg
(§3) SepPak C18 columns (Waters, Milford, USA, Cat# WAT054960) were equilibrated by gravity flow two
(§4) times with 1 mL acetonitrile and three times with 1 mL aqueous 0.1% trifluoroacetic acid (TFA) solution.
(§5) Subsequently, the samples were loaded by gravity flow, washed three times with 1 mL aqueous 0.1%
(§6) TFA solution and once with 0.5 mL aqueous 0.5% formic acid (F A) solution. Elution of peptides into
(§7) new 2.0 mL Protein LoBind Eppendorf tubes was performed by two times addition of 250 μL elution
(§8) buffer (80% acetonitrile, 0.5% FA) by gravity flow followed by 250 μL elution buffer by vacuum flow
(§9) until all liquid was eluted from the column. The eluates were lyophilized. Before MS measurement the
(§10) (brief centrifugation after each step).
(§11) Thermal protein profiling (TPP)
(§12) The experiment was performed similarly to TPP-TR experiments described by Franken et al. with minor
(§13) modifications.5 HEK293 cells were grown in 8 T175 flasks to approx. 80-90% confluency. Per replicate
(§14) volume of 0.1 N HCl as vehicle control. Per condition two replicates were used, leading to a total of 8
(§15) T175 flasks. The cells were washed with PBS, detached with accutase, the two flask per replicate
(§16) condition combined and the cells pelletized (500 ×g, 3 min, r.t.). The medium was removed and each
(§17) pellet (Cipro #1, Cipro #2, Ctrl. #1, Ctrl #2) washed twice with cold PBS. Each pellet was resuspended
(§18) depending on the sample. The cell suspension of each sample was distributed into 10 PCR tubes
(§19) (100 µL per tube), resulting in 10 stripes á 4 tubes (2×2 conditions, 10 temperature points). The PCR
(§20) tubes were subjected to the temperature gradient using a PCR cycler.
(§21) limitations, two separate programs had to be run to cover the desired temperature range (see
(§22) Table S4). The PCR tubes were heat-treated according to the two programs for 3 min and directly snap
(§23) frozen in liquid nitrogen.
(§24) manufacturer instructions.

The target in a further experiment is T2, ULK3 (Homo sapiens, UniProt Q6PHR2).
T2 construct: endogenous in cells; host or cells: HEK293
T2 sequence (Q6PHR2 1-472): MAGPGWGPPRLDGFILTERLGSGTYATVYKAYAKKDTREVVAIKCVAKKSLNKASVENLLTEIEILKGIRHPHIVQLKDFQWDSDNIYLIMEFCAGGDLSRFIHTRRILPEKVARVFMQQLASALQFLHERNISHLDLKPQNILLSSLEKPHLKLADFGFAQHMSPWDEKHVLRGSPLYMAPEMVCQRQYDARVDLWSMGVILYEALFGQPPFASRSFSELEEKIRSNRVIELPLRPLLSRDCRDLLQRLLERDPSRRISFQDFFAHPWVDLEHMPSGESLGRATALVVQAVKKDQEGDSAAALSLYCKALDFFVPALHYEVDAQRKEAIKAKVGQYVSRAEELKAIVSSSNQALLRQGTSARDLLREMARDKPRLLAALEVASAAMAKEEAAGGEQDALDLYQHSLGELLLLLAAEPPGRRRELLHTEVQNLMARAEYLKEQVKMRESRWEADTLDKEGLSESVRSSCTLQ
The procedure:
as §1, §2, §3, §4, §5, §6, §7, §8, §9, §10, §11, §12, §13, §14, §15, §16, §17, §18, §19, §20, §21, §22, §23, §24

Another experiment concerns the target T3, SMG7 (Homo sapiens, UniProt Q92540).
T3 construct: endogenous in cells; host or cells: HEK293
T3 sequence (Q92540 1-1137): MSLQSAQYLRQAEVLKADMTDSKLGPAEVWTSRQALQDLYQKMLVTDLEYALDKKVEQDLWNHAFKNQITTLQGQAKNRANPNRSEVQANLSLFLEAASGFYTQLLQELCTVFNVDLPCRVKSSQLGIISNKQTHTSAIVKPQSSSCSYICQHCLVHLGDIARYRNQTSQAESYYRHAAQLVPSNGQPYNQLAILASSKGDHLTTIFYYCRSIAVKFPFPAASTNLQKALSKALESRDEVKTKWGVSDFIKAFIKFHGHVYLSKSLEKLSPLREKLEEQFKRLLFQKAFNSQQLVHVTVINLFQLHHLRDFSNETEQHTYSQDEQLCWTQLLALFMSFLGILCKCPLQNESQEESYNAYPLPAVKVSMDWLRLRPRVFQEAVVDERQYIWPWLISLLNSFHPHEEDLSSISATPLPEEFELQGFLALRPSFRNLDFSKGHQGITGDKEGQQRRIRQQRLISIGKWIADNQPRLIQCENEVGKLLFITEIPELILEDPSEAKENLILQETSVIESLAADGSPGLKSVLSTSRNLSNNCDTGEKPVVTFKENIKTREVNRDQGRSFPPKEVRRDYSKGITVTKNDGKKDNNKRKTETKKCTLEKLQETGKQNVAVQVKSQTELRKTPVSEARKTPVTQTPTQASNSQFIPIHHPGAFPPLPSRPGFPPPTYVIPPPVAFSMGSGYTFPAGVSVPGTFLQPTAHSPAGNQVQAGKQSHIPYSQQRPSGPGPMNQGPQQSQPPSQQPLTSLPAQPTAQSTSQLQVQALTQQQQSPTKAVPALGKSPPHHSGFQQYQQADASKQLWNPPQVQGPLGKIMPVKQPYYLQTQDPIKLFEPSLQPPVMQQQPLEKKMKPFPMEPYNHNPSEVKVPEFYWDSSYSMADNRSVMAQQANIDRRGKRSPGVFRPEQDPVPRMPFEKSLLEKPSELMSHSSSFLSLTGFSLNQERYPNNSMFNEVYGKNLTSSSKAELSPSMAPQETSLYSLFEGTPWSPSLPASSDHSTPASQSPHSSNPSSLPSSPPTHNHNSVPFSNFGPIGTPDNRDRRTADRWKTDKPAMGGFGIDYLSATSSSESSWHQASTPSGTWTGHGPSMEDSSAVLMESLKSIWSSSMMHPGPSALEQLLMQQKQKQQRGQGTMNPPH
The procedure:
as §1, §2, §3, §4, §5, §6, §7, §8, §9, §10, §11, §12, §13, §14, §15, §16, §17, §18, §19, §20, §21, §22, §23, §24

Our source for the ΔTm values is article PMC12036814 (Angewandte Chemie (International Ed. in English), 2025).

The ΔTm is the shift of the melting midpoint relative to a reference.

Each structure is given as a SMILES string. Like-named read-outs stand apart in the source and are kept apart here.

Take `O=C(O)c1cn(C2CC2)c2cc(N3CCNCC3)c(F)cc2c1=O` [Ciprofloxacin]: the ΔTm at 70 µM worked out at 3.54 °C at TRIM26 (read-out: ΔTm Rep. 1); 3.88 °C on TRIM26 (read-out: ΔTm Rep. 2); 1.72 °C at ULK3 (read-out: ΔTm Rep. 1); 4.39 °C on ULK3 (read-out: ΔTm Rep. 2); 1.67 °C on SMG7 (read-out: ΔTm Rep. 1); 3.28 °C at SMG7 (read-out: ΔTm Rep. 2).
